Test results: PubChem BioAssay (NCI)
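How tested: cells in 96-well plates exposed to compound for 48 hours at five concentrations. TGI denotes the concentration required for complete inhibition of growth.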

Assays:
Assay in all cases: NCI tumour cell line growth inhibition, 48 h
786-0 renal = system: 786-0 renal
HOP-62 NSCLC = system: HOP-62 NSCLC
SK-MEL-5 melanoma = system: SK-MEL-5 melanoma
IGROV1 ovarian = system: IGROV1 ovarian
KM12 colon = system: KM12 colon
NCI-H226 lung = system: NCI-H226 lung
MDA-MB-435 = system: MDA-MB-435
MDA-N = system: MDA-N
EKVX NSCLC = system: EKVX NSCLC
NCI-H23 lung = system: NCI-H23 lung
TK-10 renal = system: TK-10 renal
T-47D breast = system: T-47D breast
PC-3 prostate = system: PC-3 prostate
A549 NSCLC = system: A549 NSCLC
COLO 205 colon = system: COLO 205 colon
SF-268 CNS = system: SF-268 CNS
A498 renal = system: A498 renal
SW-620 colon = system: SW-620 colon
SNB-75 CNS = system: SNB-75 CNS
UO-31 renal = system: UO-31 renal
HS 578T breast = system: HS 578T breast
OVCAR-5 ovarian = system: OVCAR-5 ovarian
NCI-H522 lung = system: NCI-H522 lung
NCI-H460 lung = system: NCI-H460 lung
NCI/ADR-RES ovarian = system: NCI/ADR-RES ovarian
CCRF-CEM leukemia = system: CCRF-CEM leukemia
OVCAR-8 ovarian = system: OVCAR-8 ovarian
UACC-257 melanoma = system: UACC-257 melanoma
SK-OV-3 ovarian = system: SK-OV-3 ovarian
MDA-MB-231 breast = system: MDA-MB-231 breast
HOP-92 NSCLC = system: HOP-92 NSCLC
LOX IMVI melanoma = system: LOX IMVI melanoma
CAKI-1 renal = system: CAKI-1 renal
SNB-19 CNS = system: SNB-19 CNS
U251 CNS = system: U251 CNS
RPMI-8226 leukemia = system: RPMI-8226 leukemia
K-562 leukemia = system: K-562 leukemia
ACHN renal = system: ACHN renal
RXF 393 renal = system: RXF 393 renal
SF-295 CNS = system: SF-295 CNS
OVCAR-3 ovarian = system: OVCAR-3 ovarian
OVCAR-4 ovarian = system: OVCAR-4 ovarian
SR leukemia = system: SR leukemia
MCF7 breast = system: MCF7 breast
DU-145 prostate = system: DU-145 prostate
MOLT-4 leukemia = system: MOLT-4 leukemia
HCT-116 colon = system: HCT-116 colon
UACC-62 melanoma = system: UACC-62 melanoma
HCT-15 colon = system: HCT-15 colon
HCC-2998 colon = system: HCC-2998 colon
SF-539 CNS = system: SF-539 CNS
BT-549 breast = system: BT-549 breast
HT29 colon = system: HT29 colon
SK-MEL-2 melanoma = system: SK-MEL-2 melanoma
SN12C renal = system: SN12C renal
M14 melanoma = system: M14 melanoma
SK-MEL-28 melanoma = system: SK-MEL-28 melanoma
MALME-3M melanoma = system: MALME-3M melanoma

Measured: TGI

COc1cc2nc3c(=C(C#N)C#N)c4ccccc4n3c(=O)c2cc1OC
> 100 µM: 786-0 renal | HOP-62 NSCLC | SK-MEL-5 melanoma | IGROV1 ovarian | KM12 colon | NCI-H226 lung | MDA-MB-435 | MDA-N | EKVX NSCLC | NCI-H23 lung | TK-10 renal | T-47D breast | PC-3 prostate | A549 NSCLC | COLO 205 colon | SF-268 CNS | A498 renal | SW-620 colon | SNB-75 CNS | UO-31 renal | HS 578T breast | OVCAR-5 ovarian | NCI-H522 lung | NCI-H460 lung | NCI/ADR-RES ovarian | CCRF-CEM leukemia | OVCAR-8 ovarian | UACC-257 melanoma | SK-OV-3 ovarian | MDA-MB-231 breast | HOP-92 NSCLC | LOX IMVI melanoma | CAKI-1 renal | SNB-19 CNS | U251 CNS | RPMI-8226 leukemia | K-562 leukemia | ACHN renal | RXF 393 renal | SF-295 CNS | OVCAR-3 ovarian | OVCAR-4 ovarian | SR leukemia | MCF7 breast | DU-145 prostate | MOLT-4 leukemia | HCT-116 colon | UACC-62 melanoma | HCT-15 colon | HCC-2998 colon | SF-539 CNS | BT-549 breast | HT29 colon | SK-MEL-2 melanoma | SN12C renal | M14 melanoma

C=C(C)c1nc(C#N)c(N)o1
> 100 µM: 786-0 renal | HOP-62 NSCLC | SK-MEL-5 melanoma | SK-MEL-28 melanoma | IGROV1 ovarian | KM12 colon | NCI-H226 lung | MDA-MB-435 | MDA-N | EKVX NSCLC | NCI-H23 lung | TK-10 renal | T-47D breast | PC-3 prostate | A549 NSCLC | COLO 205 colon | SF-268 CNS | SW-620 colon | UO-31 renal | HS 578T breast | OVCAR-5 ovarian | NCI-H460 lung | NCI/ADR-RES ovarian | CCRF-CEM leukemia | OVCAR-8 ovarian | MALME-3M melanoma | UACC-257 melanoma | SK-OV-3 ovarian | MDA-MB-231 breast | LOX IMVI melanoma | CAKI-1 renal | SNB-19 CNS | U251 CNS | RPMI-8226 leukemia | K-562 leukemia | ACHN renal | RXF 393 renal | SF-295 CNS | OVCAR-3 ovarian | OVCAR-4 ovarian | SR leukemia | MCF7 breast | DU-145 prostate | MOLT-4 leukemia | HCT-116 colon | HCT-15 colon | HCC-2998 colon | SF-539 CNS | BT-549 breast | HT29 colon | SK-MEL-2 melanoma | SN12C renal | M14 melanoma
